Test results from PMC10882719 (Frontiers in Neuroscience, 2024).
Where two headings read alike, the source gives them in different places.

Experiments:
Format in all cases: cell-based
168 GPCRs [1] = molecular target: T1, 168 GPCRs (Homo sapiens, UniProt P18825); conditions: ADRA2C
T1 construct: host or cells: PathHunter cell lines
T1 sequence (P18825 1-462): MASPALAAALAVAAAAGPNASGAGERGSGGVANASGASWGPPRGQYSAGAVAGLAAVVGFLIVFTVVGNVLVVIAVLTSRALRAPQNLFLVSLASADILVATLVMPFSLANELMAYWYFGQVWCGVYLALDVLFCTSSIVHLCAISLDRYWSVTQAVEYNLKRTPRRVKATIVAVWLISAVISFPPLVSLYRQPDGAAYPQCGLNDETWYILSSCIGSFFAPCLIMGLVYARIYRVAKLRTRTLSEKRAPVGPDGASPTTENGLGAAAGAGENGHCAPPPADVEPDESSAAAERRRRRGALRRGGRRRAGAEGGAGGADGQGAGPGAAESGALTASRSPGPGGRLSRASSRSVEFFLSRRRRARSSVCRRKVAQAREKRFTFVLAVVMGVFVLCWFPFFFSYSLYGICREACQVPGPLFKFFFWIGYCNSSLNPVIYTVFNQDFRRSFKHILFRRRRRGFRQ

168 GPCRs [2] = molecular target: T2, 168 GPCRs (Homo sapiens, UniProt P21452); conditions: TACR2
T2 construct: host or cells: PathHunter cell lines
T2 sequence (P21452 1-398): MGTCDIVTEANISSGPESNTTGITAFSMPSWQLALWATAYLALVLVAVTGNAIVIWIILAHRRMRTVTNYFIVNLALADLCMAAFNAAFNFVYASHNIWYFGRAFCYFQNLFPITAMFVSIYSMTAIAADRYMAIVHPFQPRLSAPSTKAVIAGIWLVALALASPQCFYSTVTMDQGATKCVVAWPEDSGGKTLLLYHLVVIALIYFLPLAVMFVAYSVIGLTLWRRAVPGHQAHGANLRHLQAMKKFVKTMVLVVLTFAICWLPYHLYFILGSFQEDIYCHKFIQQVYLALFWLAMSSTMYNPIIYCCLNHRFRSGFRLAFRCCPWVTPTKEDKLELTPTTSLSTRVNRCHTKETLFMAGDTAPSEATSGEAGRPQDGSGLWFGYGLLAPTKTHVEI

168 GPCRs [3] = molecular target: T3, 168 GPCRs (Homo sapiens, UniProt P21730)
T3 construct: host or cells: PathHunter cell lines
T3 sequence (P21730 1-350): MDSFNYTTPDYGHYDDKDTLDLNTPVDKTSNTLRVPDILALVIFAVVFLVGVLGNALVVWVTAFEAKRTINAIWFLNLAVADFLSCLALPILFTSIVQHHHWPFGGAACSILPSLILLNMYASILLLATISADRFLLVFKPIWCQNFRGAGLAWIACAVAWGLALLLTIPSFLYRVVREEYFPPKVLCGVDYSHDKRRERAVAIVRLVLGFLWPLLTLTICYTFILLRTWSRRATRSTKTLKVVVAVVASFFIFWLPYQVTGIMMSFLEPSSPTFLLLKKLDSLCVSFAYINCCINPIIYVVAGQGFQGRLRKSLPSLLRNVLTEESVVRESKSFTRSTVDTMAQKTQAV

168 GPCRs [4] = molecular target: T4, 168 GPCRs (Homo sapiens, UniProt P22888); conditions: LHCGR
T4 construct: host or cells: PathHunter cell lines
T4 sequence (P22888 27-699): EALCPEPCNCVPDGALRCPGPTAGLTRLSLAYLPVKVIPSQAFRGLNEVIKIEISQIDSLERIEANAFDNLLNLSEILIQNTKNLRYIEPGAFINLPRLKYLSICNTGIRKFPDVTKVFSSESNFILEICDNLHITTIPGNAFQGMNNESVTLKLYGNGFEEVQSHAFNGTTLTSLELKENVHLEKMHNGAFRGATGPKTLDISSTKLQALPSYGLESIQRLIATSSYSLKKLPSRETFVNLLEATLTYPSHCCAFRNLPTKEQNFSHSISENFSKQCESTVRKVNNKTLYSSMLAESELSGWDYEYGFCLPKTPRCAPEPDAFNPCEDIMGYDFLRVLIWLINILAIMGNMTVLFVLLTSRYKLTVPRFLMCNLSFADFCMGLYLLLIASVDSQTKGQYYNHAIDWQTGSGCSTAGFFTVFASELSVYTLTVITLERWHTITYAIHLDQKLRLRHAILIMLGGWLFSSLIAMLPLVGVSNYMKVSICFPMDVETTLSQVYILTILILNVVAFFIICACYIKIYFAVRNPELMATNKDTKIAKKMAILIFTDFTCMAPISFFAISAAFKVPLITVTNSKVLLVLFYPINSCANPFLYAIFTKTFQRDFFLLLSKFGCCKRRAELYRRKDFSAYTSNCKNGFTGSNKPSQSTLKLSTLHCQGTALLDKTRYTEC

168 GPCRs [5] = molecular target: T5, 168 GPCRs (Homo sapiens, UniProt P30939); conditions: HTR1F
T5 construct: host or cells: PathHunter cell lines
T5 sequence (P30939 1-366): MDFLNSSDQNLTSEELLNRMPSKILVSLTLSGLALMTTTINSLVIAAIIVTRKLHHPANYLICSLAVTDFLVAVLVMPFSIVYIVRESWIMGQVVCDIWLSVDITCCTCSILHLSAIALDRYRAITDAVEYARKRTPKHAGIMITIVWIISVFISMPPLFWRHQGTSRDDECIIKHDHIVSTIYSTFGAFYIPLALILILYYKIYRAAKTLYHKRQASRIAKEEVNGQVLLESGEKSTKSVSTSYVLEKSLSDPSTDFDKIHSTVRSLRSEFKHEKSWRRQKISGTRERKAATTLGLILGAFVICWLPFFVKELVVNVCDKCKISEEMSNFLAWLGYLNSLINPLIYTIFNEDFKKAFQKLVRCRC

168 GPCRs [6] = molecular target: T6, 168 GPCRs (Homo sapiens, UniProt P47900); conditions: P2RY1
T6 construct: host or cells: PathHunter cell lines
T6 sequence (P47900 whole entry): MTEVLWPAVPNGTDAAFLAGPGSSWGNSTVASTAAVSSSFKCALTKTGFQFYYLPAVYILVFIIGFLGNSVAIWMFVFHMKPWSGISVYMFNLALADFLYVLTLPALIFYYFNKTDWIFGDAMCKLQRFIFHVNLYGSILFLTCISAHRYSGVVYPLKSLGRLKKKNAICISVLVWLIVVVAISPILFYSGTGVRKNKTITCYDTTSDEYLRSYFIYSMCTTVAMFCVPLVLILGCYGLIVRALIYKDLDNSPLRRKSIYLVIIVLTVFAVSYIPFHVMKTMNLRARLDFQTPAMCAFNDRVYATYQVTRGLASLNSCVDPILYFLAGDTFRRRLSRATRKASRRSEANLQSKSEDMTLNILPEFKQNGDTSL

168 GPCRs [7] = molecular target: T7, 168 GPCRs (Homo sapiens, UniProt P48146)
T7 construct: host or cells: PathHunter cell lines
T7 sequence (P48146 whole entry): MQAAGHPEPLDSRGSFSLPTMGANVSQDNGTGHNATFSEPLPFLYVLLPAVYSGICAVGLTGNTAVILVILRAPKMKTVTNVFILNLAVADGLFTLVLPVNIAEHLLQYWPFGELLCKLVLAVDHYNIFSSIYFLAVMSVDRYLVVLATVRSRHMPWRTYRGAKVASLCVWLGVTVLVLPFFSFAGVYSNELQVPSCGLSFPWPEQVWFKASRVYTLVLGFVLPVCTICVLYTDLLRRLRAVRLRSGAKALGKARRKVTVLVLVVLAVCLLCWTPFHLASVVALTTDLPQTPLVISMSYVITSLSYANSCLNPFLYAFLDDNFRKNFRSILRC

168 GPCRs [8] = molecular target: T8, 168 GPCRs (Homo sapiens, UniProt Q01726); conditions: MC1R
T8 construct: host or cells: PathHunter cell lines
T8 sequence (Q01726 whole entry): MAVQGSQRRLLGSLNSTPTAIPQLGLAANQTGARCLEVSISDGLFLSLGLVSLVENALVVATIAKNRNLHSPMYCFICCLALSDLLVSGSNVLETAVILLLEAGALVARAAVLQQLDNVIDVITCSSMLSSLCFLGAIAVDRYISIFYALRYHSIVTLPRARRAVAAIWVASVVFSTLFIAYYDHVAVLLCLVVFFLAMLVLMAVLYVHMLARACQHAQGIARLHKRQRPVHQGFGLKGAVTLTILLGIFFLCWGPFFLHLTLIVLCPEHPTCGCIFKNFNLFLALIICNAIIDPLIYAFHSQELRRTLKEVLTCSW

Structure (SMILES) | % Agonist Activity (168 GPCRs [1]; 1 uM) [%] | % Antagonist Activity (168 GPCRs [1]; 1 uM) [%] | % Agonist Activity (168 GPCRs [1]; 10 uM) [%] | % Antagonist Activity (168 GPCRs [1]; 10 uM) [%] | % Agonist Activity (168 GPCRs [2]; Conc 1 uM) [%] | % Antagonist Activity (168 GPCRs [2]; Conc 1 uM) [%] | % Agonist Activity (168 GPCRs [2]; Conc 10 uM) [%] | % Antagonist Activity (168 GPCRs [2]; Conc 10 uM) [%] | % Agonist Activity (168 GPCRs [3]; C5aR1, 1 uM) [%] | % Antagonist Activity (168 GPCRs [3]; C5aR1, 1 uM) [%] | % Agonist Activity (168 GPCRs [3]; C5aR1, 10 uM) [%] | % Antagonist Activity (168 GPCRs [3]; C5aR1, 10 uM) [%] | % Agonist Activity (168 GPCRs [4]; 1 uM) [%] | % Antagonist Activity (168 GPCRs [4]; 1 uM) [%] | % Agonist Activity (168 GPCRs [4]; 10 uM) [%] | % Antagonist Activity (168 GPCRs [4]; 10 uM) [%] | % Agonist Activity (168 GPCRs [5]; 1 uM) [%] | % Antagonist Activity (168 GPCRs [5]; 1 uM) [%] | % Agonist Activity (168 GPCRs [5]; 10 uM) [%] | % Antagonist Activity (168 GPCRs [5]; 10 uM) [%] | further results
CNC(C)Cc1ccc2c(c1)OCO2 (stereo not shown) [MDMA, 3,4-Methylenedioxy methamphetamine, reference compound] | 3.9 | 16.4 | 6.9 | 38.1 | 0.1 | 12.5 | -0.1 | 10.7 | -1.1 | -5.5 | -1.1 | -4.3 | 2.4 | 1.2 | 0.9 | -1 | 10.9 | 14.6 | 8.5 | 10.8 | % Agonist Activity (168 GPCRs [6]; Conc 1 uM): 0.3%; % Antagonist Activity (168 GPCRs [6]; Conc 1 uM): 2.8%; % Agonist Activity (168 GPCRs [6]; Conc 10 uM): -0.8%; % Antagonist Activity (168 GPCRs [6]; Conc 10 uM): 1.2%; % Agonist Activity (168 GPCRs [7]; NPBWR2, 1 uM): -2.6%; % Antagonist Activity (168 GPCRs [7]; NPBWR2, 1 uM): -2.1%; % Agonist Activity (168 GPCRs [7]; NPBWR2, Conc 10 uM): -2.3%; % Antagonist Activity (168 GPCRs [7]; NPBWR2, Conc 10 uM): 2.4%; % Agonist Activity (168 GPCRs [8]; 1 uM): -6.6%; % Antagonist Activity (168 GPCRs [8]; 1 uM): 6.5%; % Agonist Activity (168 GPCRs [8]; 10 uM): -3.4%; % Antagonist Activity (168 GPCRs [8]; 10 uM): -4.9%
CNC(C)C(=O)c1ccc2c(c1)OCO2 (stereo not shown) [methylone] | -2.5 | -4.3 | 0.1 | 17.6 | -1.9 | 10 | -3.3 | 9.1 | -1 | 8.9 | -1.3 | 5 | 0.4 | 13.8 | 0.4 | 11.2 | -4.4 | 14.4 | -3 | 9.2 | % Agonist Activity (168 GPCRs [6]; Conc 1 uM): 2.2%; % Antagonist Activity (168 GPCRs [6]; Conc 1 uM): 14.5%; % Agonist Activity (168 GPCRs [6]; Conc 10 uM): -4.1%; % Antagonist Activity (168 GPCRs [6]; Conc 10 uM): 14.9%; % Agonist Activity (168 GPCRs [7]; NPBWR2, 1 uM): -0.3%; % Antagonist Activity (168 GPCRs [7]; NPBWR2, 1 uM): -14.1%; % Agonist Activity (168 GPCRs [7]; NPBWR2, Conc 10 uM): 1.3%; % Antagonist Activity (168 GPCRs [7]; NPBWR2, Conc 10 uM): -14%; % Agonist Activity (168 GPCRs [8]; 1 uM): -2.6%; % Antagonist Activity (168 GPCRs [8]; 1 uM): 20.1%; % Agonist Activity (168 GPCRs [8]; 10 uM): -4.4%; % Antagonist Activity (168 GPCRs [8]; 10 uM): 15.9%
